Results from patent US12110289B2, “Heterocyclic compounds, preparation methods and uses thereof” (InventisBio Co., Ltd., priority 2020, dated 2024).

tested on: Lung cancer cell line NCI-H358 containing KRas G12C mutation; test: Assay for cell proliferation (Cell-titer Glo, 5 days); assay type: cell-based, human; details: Homo sapiens, NCI-H358, 120 h, NCI-H358, 5 days, Cell-titer Glo; read-out: IC50 (nM), Inhibition of NCI-H358 Cell Proliferation
Method: One hundred fifty microliter (150 μL) of media containing 2000 cells per well were seeded into each well of a 96-well culture plate and left to attach overnight in a 37° C. incubator with 5% CO2. Diluted compounds of 0.75 μL for each well were added by liquid handler at a final concentration of 0.5% DMSO. Cells were treated for 5 days in the incubator. Cell-titer Glo (CTG) kit (Promega) was used to assess cell proliferation. Of note, 120 μL of CTG reagent was added to each well and incubated at RT for 10 minutes.

Q: With `C=CC(=O)N1C[C@H](C)N(c2nc(=O)n(-c3c(C(C)C)ncnc3C(C)C)c3nc(-c4c(N)cccc4F)c(F)cc23)C[C@H]1C` [4-((2S,5R)-4-acryloyl-2,5-dimethylpiperazin-1-yl)-7-(2-amino-6-fluorophenyl)-1-(4,6-diisopropylpyrimidin-5-yl)-6-fluoropyrido[2,3-d]pyrimidin-2(1H)-one] as the compound, how does the IC50 read?
A: 5.3 nM

Q: Which IC50 does the source give for `C=CC(=O)N1C[C@H](C)N(c2nc(=O)n(-c3c(C(C)C)ncnc3C(C)C)c3nc(-c4c(N)cccc4F)c(Cl)cc23)C[C@H]1C` [4-((2S,5R)-4-acryloyl-2,5-dimethylpiperazin-1-yl)-7-(2-amino-6-fluorophenyl)-6-chloro-1-(4,6-diisopropylpyrimidin-5-yl)pyrido[2,3-d]pyrimidin-2(1H)-one] here?
A: 1.6 nM

Q: `C=CC(=O)N1C[C@H](C)N(c2nc(=O)n(-c3c(C(C)C)ncnc3C(C)C)c3nc(-c4ccccc4F)c(F)cc23)C[C@H]1C` [4-((2S,5R)-4-acryloyl-2,5-dimethylpiperazin-1-yl)-7-(2-fluorophenyl)-1-(4,6-diisopropylpyrimidin-5-yl)-6-fluoropyrido[2,3-d]pyrimidin-2(1H)-one] was tested. Which IC50 did it give?
A: 19 nM

Q: `C=CC(=O)N1C[C@H](C)N(c2nc(=O)n(-c3c(C(C)C)ncnc3C(C)C)c3nc(-c4ccccc4F)c(Cl)cc23)C[C@H]1C` [4-((2S,5R)-4-acryloyl-2,5-dimethylpiperazin-1-yl)-7-(2-fluorophenyl)-6-chloro-1-(4,6-diisopropylpyrimidin-5-yl)pyrido[2,3-d]pyrimidin-2(1H)-one] was tested. Which IC50 did it give?
A: 4 nM

Q: How did the IC50 turn out when `C=CC(=O)N1CCN(c2nc(=O)n(-c3c(C(C)C)ncnc3C(C)C)c3nc(-c4ccccc4F)c(Cl)cc23)C[C@@H]1CC#N` [Compound 2] was run?
A: 23.9 nM

Q: `C=CC(=O)N1CCN(c2nc(=O)n(-c3c(C4CC4)ncnc3C3CC3)c3nc(-c4cccc5[nH]nc(N)c45)c(Cl)cc23)[C@@H](C)C1` [Compound 3] was tested. Which IC50 did it give?
A: 661 nM

Q: How did the IC50 turn out when `C=CC(=O)N1CCN(c2nc(=O)n(-c3c(C4CC4)ncnc3C3CC3)c3nc(-c4ncccc4F)c(Cl)cc23)[C@@H](C)C1` [Compound 4] was run?
A: 130 nM

Q: For `C=CC(=O)N1CCN(c2nc(=O)n(-c3c(C4CC4)ncnc3C3CC3)c3nc(-c4ccccc4F)c(Cl)cc23)C[C@@H]1CC#N` [Compound 5], which IC50 is on record?
A: 172 nM

Q: With `C=CC(=O)N1CCN(c2nc(=O)n(-c3c(C(C)C)nc(N4CCC4)nc3C(C)C)c3nc(-c4ccccc4F)c(Cl)cc23)[C@@H](C)C1` [Compound 7] as the compound, how does the IC50 read?
A: 30.6 nM

Q: How did the IC50 turn out when `C=CC(=O)N1CCN(c2nc(=O)n(-c3c(C(C)C)nc(NC)nc3C(C)C)c3nc(-c4ccccc4F)c(Cl)cc23)[C@@H](C)C1` [Compound 11] was run?
A: 9.2 nM

Q: Which IC50 does the source give for `C=CC(=O)N1CCN(c2nc(=O)n(-c3c(C(C)C)nc(N(C)C)nc3C(C)C)c3nc(-c4ccccc4F)c(Cl)cc23)[C@@H](C)C1` [Compound 12] here?
A: 107 nM

Q: For `C=CC(=O)N1CCN(c2nc(=O)n(-c3c(C(C)C)nc(OCC(C)(C)O)nc3C(C)C)c3nc(-c4ccccc4F)c(Cl)cc23)[C@@H](C)C1` [Compound 16], which IC50 is on record?
A: 8 nM

Q: How did the IC50 turn out when `C=CC(=O)N1CCN(c2nc(=O)n(-c3c(C(C)C)nc(OC4CCN(C)C4)nc3C(C)C)c3nc(-c4ccccc4F)c(Cl)cc23)[C@@H](C)C1` (stereo partly drawn) [Compound 17] was run?
A: 14.4 nM

Q: How did the IC50 turn out when `C=CC(=O)N1CCN(c2nc(=O)n(-c3c(C(C)C)nc(OC4CN(C)C4)nc3C(C)C)c3nc(-c4ccccc4F)c(Cl)cc23)[C@@H](C)C1` [Compound 18] was run?
A: 16 nM

Q: `C=CC(=O)N1CCN(c2nc(=O)n(-c3c(C(C)C)nc(OCC(C)O)nc3C(C)C)c3nc(-c4ccccc4F)c(Cl)cc23)[C@@H](C)C1` (stereo partly drawn) [Compound 19] was tested. Which IC50 did it give?
A: 5 nM

Q: How did the IC50 turn out when `C=CC(=O)N1CCN(c2nc(=O)n(-c3c(C4CC4)nc(C#N)nc3C3CC3)c3nc(-c4c(O)cccc4F)c(F)cc23)[C@@H](C)C1` [Compound 25] was run?
A: 52.5 nM

Q: `C=CC(=O)N1CCN(c2nc(=O)n(-c3c(C4CC4)nc(C#N)nc3C3CC3)c3nc(-c4ccccc4F)c(F)cc23)[C@@H](C)C1` [Compound 26] was tested. Which IC50 did it give?
A: 168 nM

Q: `C=CC(=O)N1CCN(c2nc(=O)n(-c3c(C4CC4)nc(C)nc3C3CC3)c3nc(-c4ccccc4F)c(F)cc23)[C@@H](C)C1` [Compound 27] was tested. Which IC50 did it give?
A: 69.9 nM

Q: How did the IC50 turn out when `C=CC(=O)N1CCN(c2nc(=O)n(-c3c(C4CC4)nc(N)nc3C3CC3)c3nc(-c4ccccc4F)c(F)cc23)[C@@H](C)C1` [Compound 30] was run?
A: 52.7 nM

Q: How did the IC50 turn out when `C=CC(=O)N1[C@H](C)CN(c2nc(=O)n(-c3c(C(C)C)nc(OCCN(C)C)nc3C(C)C)c3nc(-c4ccccc4F)c(Cl)cc23)C[C@@H]1C` [Compound 31] was run?
A: 28.2 nM

Q: With `C=CC(=O)N1CCN(c2nc(=O)n(-c3c(C(C)C)nc(OCCOC)nc3C(C)C)c3nc(-c4ccccc4F)c(Cl)cc23)[C@@H](C)C1` [Compound 32] as the compound, how does the IC50 read?
A: 8.5 nM

Q: Which IC50 does the source give for `C=CC(=O)N1CCN(c2nc(=O)n(-c3c(C4CC4)nc(NCCN(C)C)nc3C3CC3)c3nc(-c4ccccc4F)c(F)cc23)[C@@H](C)C1` [Compound 33] here?
A: 67.5 nM

Q: `C=CC(=O)N1CCN(c2nc(=O)n(-c3c(C4CC4)nc(N4CC(N(C)C)C4)nc3C3CC3)c3nc(-c4ccccc4F)c(F)cc23)[C@@H](C)C1` [Compound 34] was tested. Which IC50 did it give?
A: 58.3 nM

Q: `C=CC(=O)N1CCN(c2nc(=O)n(-c3c(C4CC4)nc(NC(C)=O)nc3C3CC3)c3nc(-c4ccccc4F)c(F)cc23)[C@@H](C)C1` [Compound 35] was tested. Which IC50 did it give?
A: 58.2 nM

Q: `C=CC(=O)N1CCN(c2nc(=O)n(-c3c(C4CC4)ncnc3C3CC3)c3nc(-c4cccc5[nH]nc(N)c45)c(F)cc23)[C@@H](C)C1` [Compound 36] was tested. Which IC50 did it give?
A: > 3000 nM

Q: For `C=CC(=O)N1C[C@H](C)N(c2nc(=O)n(-c3c(C4CC4)ncnc3C3CC3)c3nc(-c4cccc5[nH]nc(N)c45)c(F)cc23)C[C@H]1C` [Compound 37], which IC50 is on record?
A: > 3000 nM

Q: For `C=CC(=O)N1[C@H](C)CN(c2nc(=O)n(-c3c(C4CC4)ncnc3C3CC3)c3nc(-c4cccc5[nH]nc(N)c45)c(F)cc23)C[C@@H]1C` [Compound 38], which IC50 is on record?
A: > 3000 nM

Q: Which IC50 does the source give for `C=CC(=O)N1CCN(c2nc(=O)n(-c3c(C4CC4)ncnc3C3CC3)c3nc(-c4ccccc4F)c(F)cc23)[C@@H](C)C1` [Compound 39] here?
A: 38.2 nM

Q: `C=CC(=O)N1C[C@H](C)N(c2nc(=O)n(-c3c(C4CC4)ncnc3C3CC3)c3nc(-c4ccccc4F)c(F)cc23)C[C@H]1C` [Compound 42] was tested. Which IC50 did it give?
A: 39.5 nM

Q: For `C=CC(=O)N1C[C@H](C)N(c2nc(=O)n(-c3c(C4CC4)ncnc3C3CC3)c3nc(-c4c(O)cccc4F)c(F)cc23)C[C@H]1C` [Compound 43], which IC50 is on record?
A: 15.5 nM

Q: With `C=CC(=O)N1[C@H](C)CN(c2nc(=O)n(-c3c(C4CC4)ncnc3C3CC3)c3nc(-c4ccccc4F)c(F)cc23)C[C@@H]1C` [Compound 45] as the compound, how does the IC50 read?
A: 299 nM

Q: With `C=CC(=O)N1[C@H](C)CN(c2nc(=O)n(-c3c(C4CC4)ncnc3C3CC3)c3nc(-c4c(O)cccc4F)c(F)cc23)C[C@@H]1C` [Compound 46] as the compound, how does the IC50 read?
A: 81.5 nM

Q: How did the IC50 turn out when `C=CC(=O)N1[C@H](C)CN(c2nc(=O)n(-c3c(C4CC4)ncnc3C3CC3)c3nc(-c4c(N)cccc4F)c(F)cc23)C[C@@H]1C` [Compound 47] was run?
A: 23.8 nM

Q: How did the IC50 turn out when `C=CC(=O)N1CCN(c2nc(=O)n(-c3c(C(C)C)nc(C)nc3C(C)C)c3nc(-c4ccccc4F)c(F)cc23)[C@@H](C)C1` [Compound 48] was run?
A: 25.8 nM

Q: `C=CC(=O)N1C[C@H](C)N(c2nc(=O)n(-c3c(C(C)C)nc(C)nc3C(C)C)c3nc(-c4ccccc4F)c(F)cc23)C[C@H]1C` [Compound 49] was tested. Which IC50 did it give?
A: 25 nM

Q: `C=CC(=O)N1C[C@H](C)N(c2nc(=O)n(-c3c(C4CC4)nc(C)nc3C3CC3)c3nc(-c4ccccc4F)c(F)cc23)C[C@H]1C` [Compound 50] was tested. Which IC50 did it give?
A: 107 nM

Q: For `C=CC(=O)N1C[C@H](C)N(c2nc(=O)n(-c3c(C4CC4)nc(C)nc3C3CC3)c3nc(-c4c(N)cccc4F)c(F)cc23)C[C@H]1C` [Compound 51], which IC50 is on record?
A: 12.5 nM

Q: With `C=CC(=O)N1[C@H](C)CN(c2nc(=O)n(-c3c(C4CC4)nc(C)nc3C3CC3)c3nc(-c4ccccc4F)c(F)cc23)C[C@@H]1C` [Compound 53] as the compound, how does the IC50 read?
A: 617 nM

Q: Which IC50 does the source give for `C=CC(=O)N1[C@H](C)CN(c2nc(=O)n(-c3c(C4CC4)nc(C)nc3C3CC3)c3nc(-c4c(N)cccc4F)c(F)cc23)C[C@@H]1C` [Compound 54] here?
A: 34.6 nM

Q: How did the IC50 turn out when `C=CC(=O)N1[C@H](C)CN(c2nc(=O)n(-c3c(C4CC4)nc(C)nc3C3CC3)c3nc(-c4c(O)cccc4F)c(F)cc23)C[C@@H]1C` [Compound 55] was run?
A: 74.3 nM

same assay, conditions: NCI-H358, 5 days, Cell-titer Glo; read-out: IC50 (nM), Inhibition of NCI-H358 Cell Proliferation

Q: `C=CC(=O)N1C[C@H](C)N(c2nc(=O)n(-c3c(F)cc4c(ncn4C)c3C3CC3)c3nc(-c4c(N)cccc4F)c(Cl)cc23)C[C@H]1C` (single isomer, unassigned) [Compound 178] was tested. Which IC50 did it give?
A: 0.9 nM

Q: With `C=CC(=O)N1C[C@H](C)N(c2nc(=O)n(-c3c(C(C)C)nc4c(ncn4C)c3C)c3nc(-c4ccccc4F)c(Cl)cc23)C[C@H]1C` (single isomer, unassigned) [Compound 182] as the compound, how does the IC50 read?
A: 1.7 nM

Q: How did the IC50 turn out when `C=CC(=O)N1C[C@H](C)N(c2nc(=O)n(-c3c(C(C)C)nc4c(ncn4C)c3C)c3nc(-c4c(N)cccc4F)c(Cl)cc23)C[C@H]1C` (single isomer, unassigned) [Compound 183] was run?
A: 27.4 nM

Q: `C=CC(=O)N1C[C@H](C)N(c2nc(=O)n(-c3c(C(C)C)nc4c(ncn4C)c3C)c3nc(-c4c(N)cccc4F)c(Cl)cc23)C[C@H]1C` (single isomer, unassigned) [Compound 184] was tested. Which IC50 did it give?
A: 0.2 nM

Q: Which IC50 does the source give for `C=CC(=O)N1C[C@H](C)N(c2nc(=O)n(-c3c(C(C)C)nc4c(ncn4C)c3C)c3nc(-c4c(O)cccc4F)c(Cl)cc23)C[C@H]1C` (single isomer, unassigned) [Compound 185] here?
A: 21.7 nM

Q: For `C=CC(=O)N1C[C@H](C)N(c2nc(=O)n(-c3c(C(C)C)nc4c(ncn4C)c3C)c3nc(-c4c(O)cccc4F)c(Cl)cc23)C[C@H]1C` (single isomer, unassigned) [Compound 186], which IC50 is on record?
A: 0.9 nM

Q: Which IC50 does the source give for `C=CC(=O)N1C[C@H](C)N(c2nc(=O)n(-c3c(C4CC4)ncnc3C3CC3)c3nc(-c4ccccc4F)c(F)cc23)C[C@H]1C` [Compound 42] here?
A: 38.5 nM

same assay, conditions: NCI-H358 IC50 comparison

Q: With `C=CC(=O)N1C[C@H](C)N(c2nc(=O)n(-c3c(C(C)C)ncnc3C(C)C)c3nc(-c4c(N)cccc4F)c(Cl)cc23)C[C@H]1C` [4-((2S,5R)-4-acryloyl-2,5-dimethylpiperazin-1-yl)-7-(2-amino-6-fluorophenyl)-6-chloro-1-(4,6-diisopropylpyrimidin-5-yl)pyrido[2,3-d]pyrimidin-2(1H)-one] as the compound, how does the “fold more potent: 2-amino-6-fluoro-phenyl compound vs. corresponding 2-fluoro-phenyl compound at R8” value read?
A: only slightly more potent
